Biological target: T1, CRF1 receptors (Homo sapiens, UniProt P34998)
T1 construct: endogenous in cells; host or cells: IMR-32 cells, transformed with 2.5 µM 5'-bromo-2'-deoxyuridine for 10 days; membrane preparation
T1 sequence (P34998 24-415): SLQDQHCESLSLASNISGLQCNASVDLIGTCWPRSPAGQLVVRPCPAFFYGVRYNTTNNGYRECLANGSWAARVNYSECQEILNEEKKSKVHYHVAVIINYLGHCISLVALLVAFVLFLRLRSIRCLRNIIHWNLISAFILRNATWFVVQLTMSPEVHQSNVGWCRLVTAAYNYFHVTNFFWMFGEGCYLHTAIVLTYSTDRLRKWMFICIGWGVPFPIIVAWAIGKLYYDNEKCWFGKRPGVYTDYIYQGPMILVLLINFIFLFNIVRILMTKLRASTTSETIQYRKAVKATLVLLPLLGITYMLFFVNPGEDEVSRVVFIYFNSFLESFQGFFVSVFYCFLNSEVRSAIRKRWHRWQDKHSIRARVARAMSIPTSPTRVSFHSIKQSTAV
Assay: CRF1 receptor radioligand binding assay ([125I]-oCRF competition, IMR-32 cell membranes)
Details: IMR-32 cell membranes, [125I]-oCRF 100 pM; read-out: Ki (CRF-1R)
Protocol: CRF1 receptor antagonists, by occupying the same receptors, blocks the accessibility of the receptors to CRF, a hypothalamic factor mediating body's responses to physiological and psychological stress. The following radioligand binding assay examines the ability of the antagonists to bind the CRF1 receptors by assessing their ability to compete with binding of CRF to the receptors in cell membrane.
Tissue culture and membrane preparation. IMR-32 cells were grown at 37° C. in 5% CO2 as a monolayer in medium consisting of MEM supplemented with 10% heat-inactivated fetal bovine serum, 0.1 mM nonessential amino acids, 1 mM sodium pyruvate and 2 mM L-glutamine. […] After transformation, cells were rinsed twice with phosphate-buffered saline, and incubated for 10–15 min. at 4° C. in homogenization buffer consisting of 50 mM Tris (pH 7.2), 10 mM MgCl2 and 2 mM EGTA. Cells were transferred from plates to polypropylene tubes (16×100 mm), homogenized and centrifuged at 32,000×g for 15 min. Pellets were resuspended by homogenization in buffer and centrifuged at 32,000×g for 15 min. Pellets were resuspended in homogenization buffer then stored at −80° C. until needed.
Radioligand binding assays. […] The assay buffer consisted of 50 mM Tris (pH 7.2), 10 mM MgCl2, 0.5% BSA, 0.005% Triton X-100, 10 μg/mL aprotinin and 10 μg/mL leupeptin. Assays were stopped by addition of ice-cold wash buffer (50 mM Tris, pH 7.4 and 0.2% BSA). Filtration over glass fiber filters (Whatman GF/B) previously soaked in 50 mM Tris, pH 7.2 and 1% BSA was carried out using a Brandel cell harvester. Filters were washed with 10 mL of ice-cold wash buffer. Non-specific binding was defined with 10 μM oCRF. IC50 values for oCRF and test compounds were calculated by nonlinear regression using a one-site binding curve (GraphPad Prism).

| Ki | Compound |
| --- | --- |
| < 10000 nM | CCCN(Cc1cccc(F)c1)C(=O)c1c(CC)nc2n1CCN2c1c(C)cc(C)cc1C [Example 26, 2-Ethyl-7-(2,4,6-trimethyl-phenyl)-6,7-dihydro-5H-imidazo[1,2-a]imidazole-3-carboxylic acid (3-fluoro-benzyl)-propyl-amide] |
| < 100 nM | CCc1nc2n(c1C(=O)N(CC1CC1)CC(F)(F)F)CCN2c1c(C)cc(C)cc1Cl [Example 27, 7-(2-Chloro-4,6-dimethyl-phenyl)-2-ethyl-6,7-dihydro-5H-imidazo[1,2-a]imidazole-3-carboxylic acid cyclopropylmethyl-(2,2,2-trifluoro-ethyl)-amide] |
| < 100 nM | CCCN(CC1CC1)C(=O)c1c(CC)nc2n1CCN2c1c(C)cc(C)cc1Cl [Example 28, 7-(2-Chloro-4,6-dimethyl-phenyl)-2-ethyl-6,7-dihydro-5H-imidazo[1,2-a]imidazole-3-carboxylic acid cyclopropylmethyl-propyl-amide] |
| < 1000 nM | CCc1nc2n(c1C(=O)N(CCC(F)(F)F)CC1CC1)CCN2c1c(C)cc(C)cc1Cl [Example 29, 7-(2-Chloro-4,6-dimethyl-phenyl)-2-ethyl-6,7-dihydro-5H-imidazo[1,2 a]imidazole-3-carboxylic acid cyclopropylmethyl-(3,3,3-trifluoro-propyl)-amide] |
| < 100 nM | CCc1nc2n(c1C(=O)N(CC1CC1)CC(F)(F)F)CCN2c1c(C)cc(Cl)cc1Cl [Example 30, 7-(2,4-Dichloro-6-methyl-phenyl)-2-ethyl-6,7-dihydro-5H-imidazo[1,2-a]imidazole-3-carboxylic acid cyclopropylmethyl-(2,2,2-trifluoro-ethyl)-amide] |
| < 100 nM | CCCN(CC1CC1)C(=O)c1c(CC)nc2n1CCN2c1c(C)cc(Cl)cc1Cl [Example 31, 7-(2,4-Dichloro-6-methyl-phenyl)-2-ethyl-6,7-dihydro-5H-imidazo[1,2-a]imidazole-3-carboxylic acid cyclopropylmethyl-propyl-amide] |
| < 100 nM | CCc1nc2n(c1C(=O)N(CC1CC1)CC(F)(F)C(F)(F)F)CCN2c1c(C)cc(Cl)cc1Cl [Example 32, 7-(2,4-Dichloro-6-methyl-phenyl)-2-ethyl-6,7-dihydro-5H-imidazo[1,2-a]imidazole-3-carboxylic acid cyclopropylmethyl-(2,2,3,3,3-pentafluoro-propyl)-amide] |
| < 100 nM | CCCN(CC(F)(F)F)C(=O)c1c(CC)nc2n1CCN2c1c(C)cc(Cl)cc1Cl [Example 33, 7-(2,4-Dichloro-6-methyl-phenyl)-2-ethyl-6,7-dihydro-5H-imidazo[1,2-a]imidazole-3-carboxylic acid propyl-(2,2,2-trifluoro-ethyl)-amide] |
| < 1000 nM | CCc1nc2n(c1C(=O)N(CC1CC1)CC(F)(F)F)CCN2c1ccc(C(C)C)cc1Br [Example 34, 7-(2-Bromo-4-isopropyl-phenyl)-2-ethyl-6,7-dihydro-5H-imidazo[1,2-a]imidazole-3-carboxylic acid cyclopropylmethyl-(2,2,2-trifluoro-ethyl)-amide] |
| < 10000 nM | CCCN(CC1CC1)C(=O)c1c(CC)nc2n1CCN2c1ccc(C(C)C)cc1Br [Example 35, 7-(2-Bromo-4-isopropyl-phenyl)-2-ethyl-6,7-dihydro-5H-imidazo[1,2-a]imidazole-3-carboxylic acid cyclopropylmethyl-propyl-amide] |
| < 1000 nM | CCCN(CC(F)(F)F)C(=O)c1c(CC)nc2n1CCN2c1ccc(C(C)C)cc1Br [Example 36, 7-(2-Bromo-4-isopropyl-phenyl)-2-ethyl-6,7-dihydro-5H-imidazo[1,2-a]imidazole-3-carboxylic acid propyl-(2,2,2-trifluoro-ethyl)-amide] |
| < 1000 nM | CCc1nc2n(c1C(=O)N(CC1CC1)CC(F)(F)C(F)(F)F)CCN2c1ccc(C(C)C)cc1Br [Example 37, 7-(2-Bromo-4-isopropyl-phenyl)-2-ethyl-6,7-dihydro-5H-imidazo[1,2-a]imidazole-3-carboxylic acid cyclopropylmethyl-(2,2,3,3,3-pentafluoro-propyl)-amide] |
| < 10000 nM | CCCN(CC1CCC1)C(=O)c1c(CC)nc2n1CCN2c1ccc(C(C)C)cc1Br [Example 38, 7-(2-Bromo-4-isopropyl-phenyl)-2-ethyl-6,7-dihydro-5H-imidazo[1,2-a]imidazole-3-carboxylic acid cyclobutylmethyl-propyl-amide] |
| < 10000 nM | CCc1nc2n(c1C(=O)N(CCC(F)(F)F)CC1CC1)CCN2c1ccc(C(C)C)cc1Br [Example 39, 7-(2-Bromo-4-isopropyl-phenyl)-2-ethyl-6,7-dihydro-5H-imidazo[1,2-a]imidazole-3-carboxylic acid cyclopropylmethyl-(3,3,3-trifluoro-propyl)-amide] |
| < 10000 nM | CCc1nc2n(c1C(=O)N(CC)CC1CC1)CCN2c1ccc(C(C)C)cc1Br [Example 40, 7-(2-Bromo-4-isopropyl-phenyl)-2-ethyl-6,7-dihydro-5H-imidazo[1,2-a]imidazole-3-carboxylic acid cyclopropylmethyl-ethyl-amide] |
| < 1000 nM | CCCN(CCc1ccccc1)C(=O)c1c(CC)nc2n1CCN2c1c(C)cc(C)cc1Br [Example 41, 7-(2-Bromo-4,6-dimethyl-phenyl)-2-ethyl-6,7-dihydro-5H-imidazo[1,2-a]imidazole-3-carboxylic acid phenethyl-propyl-amide] |
| < 1000 nM | CCCN(CC1CCC1)C(=O)c1c(CC)nc2n1CCN2c1c(C)cc(C)cc1Br [Example 42, 7-(2-Bromo-4,6-dimethyl-phenyl)-2-ethyl-6,7-dihydro-5H imidazo[1,2-a]imidazole-3-carboxylic acid cyclobutylmethyl-propyl-amide] |
| < 1000 nM | CCc1nc2n(c1C(=O)N(CC)CC1CCC1)CCN2c1c(C)cc(C)cc1Br [Example 43, 7-(2-Bromo-4,6-dimethyl-phenyl)-2-ethyl-6,7-dihydro-5H-imidazo[1,2-a]imidazole-3-carboxylic acid cyclobutylmethyl-ethyl-amide] |
| < 100 nM | CCc1nc2n(c1C(=O)N(CC1CC1)CC(F)(F)F)CCN2c1c(C)cc(C)cc1Br [Example 44, 7-(2-Bromo-4,6-dimethyl-phenyl)-2-ethyl-6,7-dihydro-5H-imidazo[1,2-a]imidazole-3-carboxylic acid cyclopropylmethyl-(2,2,2-trifluoro-ethyl)-amide] |
| < 1000 nM | CCCN(CCC(F)(F)F)C(=O)c1c(CC)nc2n1CCN2c1c(C)cc(C)cc1Br [Example 45, 7-(2-Bromo-4,6-dimethyl-phenyl)-2-ethyl-6,7-dihydro-5H-imidazo[1,2-a]imidazole-3-carboxylic acid propyl-(3,3,3-trifluoro-propyl)-amide] |
| < 10000 nM | CCCN(CC1CC1)C(=O)c1c(CC)nc2n1CCN2c1c(C)cc(C)cc1Br [Example 46, 7-(2-Bromo-4,6-dimethyl-phenyl)-2-ethyl-6,7-dihydro-5H-imidazo[1,2-a]imidazole-3-carboxylic acid cyclopropylmethyl-propyl-amide] |
| < 1000 nM | CCCC(O)(CCC)c1c(CC)nc2n1CCN2c1c(C)cc(C)cc1C [Example 47, 4-[2-Ethyl-7-(2,4,6-trimethyl-phenyl)-6,7-dihydro-5H-imidazo[1,2-a]imidazol-3-yl]-heptan-4-ol] |
| < 100 nM | CCC=C(CCC)c1c(CC)nc2n1CCN2c1c(C)cc(C)cc1C [Example 48, 6-Ethyl-5-(1-propyl-but-1-enyl)-1-(2,4,6-trimethyl-phenyl)-2,3-dihydro-1H-imidazo[1,2-a]imidazole] |
| < 1000 nM | CCCC(CCC)c1c(CC)nc2n1CCN2c1c(C)cc(C)cc1C [Example 49, 6-Ethyl-5-(1-propyl-butyl)-1-(2,4,6-trimethyl-phenyl)-2,3-dihydro-1H-imidazo[1,2-a]imidazole] |
| < 100 nM | CCC=C(CCC)c1c(CC)nc2n1CCN2c1c(C)cc(C)cc1Cl [Example 50, 1-(2-Chloro-4,6-dimethyl-phenyl)-6-ethyl-5-(1-propyl-but-1-enyl)-2,3-dihydro-1H-imidazo[1,2-a]imidazole] |
| < 10000 nM | CCCN(CC1CC1)C(=O)c1c(CC)nc2n1CCCN2c1c(C)cc(C)cc1C [Example 54, 2-Ethyl-8-(2,4,6-trimethyl-phenyl)-5,6,7,8-tetrahydro-imidazo[1,2-a]pyrimidine-3-carboxylic acid cyclopropylmethyl-propyl-amide] |

From patent US7125990B2, “Imidazolyl derivatives as corticotropin releasing factor inhibitors” (Bristol-Myers Squibb COmpany, priority 2001, dated 2006)
